The values that follow come from ChEMBL document CHEMBL4725315, “Structure-guided optimization of a novel class of ASK1 inhibitors with increased sp character and an exquisite selectivity profile” (Bioorg Med Chem Lett, 2020).

In series [1] the target is Tyrosine-protein kinase Mer (Homo sapiens, UniProt Q12866). The experiment in a line: Inhibition of MER (unknown origin).
Series [2] has as its target T1, Receptor tyrosine-protein kinase erbB-4 (Homo sapiens, UniProt Q15303). Kind of series: Inhibition of HER4 (unknown origin).
Series [3] addresses Tyrosine-protein kinase ITK/TSK (Homo sapiens, UniProt Q08881). The experiment in a line: Inhibition of ITK (unknown origin).
The target in series [4] is T2, Mitogen-activated protein kinase kinase kinase 5 (Homo sapiens, UniProt Q99683).
T2 sequence (Q99683 whole entry): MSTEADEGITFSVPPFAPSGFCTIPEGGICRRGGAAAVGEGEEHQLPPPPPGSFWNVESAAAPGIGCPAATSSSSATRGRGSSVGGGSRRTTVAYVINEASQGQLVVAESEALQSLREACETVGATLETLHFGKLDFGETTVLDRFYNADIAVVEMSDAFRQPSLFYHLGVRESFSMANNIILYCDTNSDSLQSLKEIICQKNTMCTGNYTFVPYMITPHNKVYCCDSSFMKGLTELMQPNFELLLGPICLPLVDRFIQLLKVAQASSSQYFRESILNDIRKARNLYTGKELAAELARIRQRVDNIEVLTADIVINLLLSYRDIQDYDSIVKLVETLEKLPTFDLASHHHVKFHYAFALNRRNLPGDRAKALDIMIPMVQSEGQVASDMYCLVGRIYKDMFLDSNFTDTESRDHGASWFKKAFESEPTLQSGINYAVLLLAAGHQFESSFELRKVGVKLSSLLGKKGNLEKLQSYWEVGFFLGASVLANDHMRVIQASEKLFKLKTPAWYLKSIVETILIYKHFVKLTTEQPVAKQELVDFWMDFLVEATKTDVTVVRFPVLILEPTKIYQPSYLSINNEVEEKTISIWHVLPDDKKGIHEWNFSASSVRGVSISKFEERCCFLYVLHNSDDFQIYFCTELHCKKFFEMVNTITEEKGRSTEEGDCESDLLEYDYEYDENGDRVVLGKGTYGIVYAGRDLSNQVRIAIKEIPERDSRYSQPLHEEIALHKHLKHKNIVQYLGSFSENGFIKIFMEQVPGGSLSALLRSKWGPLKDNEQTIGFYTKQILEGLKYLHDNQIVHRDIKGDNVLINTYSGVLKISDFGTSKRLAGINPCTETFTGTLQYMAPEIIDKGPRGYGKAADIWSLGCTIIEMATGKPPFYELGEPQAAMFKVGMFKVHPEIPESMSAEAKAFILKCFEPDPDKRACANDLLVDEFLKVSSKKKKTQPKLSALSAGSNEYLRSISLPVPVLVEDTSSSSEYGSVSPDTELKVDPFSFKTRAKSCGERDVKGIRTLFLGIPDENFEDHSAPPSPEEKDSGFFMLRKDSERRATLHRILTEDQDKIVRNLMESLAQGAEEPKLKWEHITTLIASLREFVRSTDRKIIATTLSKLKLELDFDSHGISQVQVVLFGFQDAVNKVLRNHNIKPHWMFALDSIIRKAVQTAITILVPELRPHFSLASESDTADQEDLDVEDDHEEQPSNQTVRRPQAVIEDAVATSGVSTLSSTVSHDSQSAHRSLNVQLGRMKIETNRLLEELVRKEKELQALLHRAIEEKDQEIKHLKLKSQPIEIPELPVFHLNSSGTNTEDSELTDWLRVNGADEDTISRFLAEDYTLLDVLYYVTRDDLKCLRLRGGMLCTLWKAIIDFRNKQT
The experiment in a line: Inhibition of ASK1 (unknown origin).

Another series deals with MAP kinase p38 (Homo sapiens, UniProt O15264+Q15759+Q16539+P53778). The experiment in a line: Inhibition of p38 (unknown origin). The format is protein assay.
Another series deals with Ephrin type-A receptor 3 (Homo sapiens, UniProt P29320). The experiment in a line: Inhibition of EPHA3 (unknown origin).
For series [5], the target named is Cyclin-dependent kinase 2 (Homo sapiens, UniProt P24941). The experiment in a line: Inhibition of CDK2 (unknown origin).
Series [6] deals with Rho-associated protein kinase 1 (Homo sapiens, UniProt Q13464). The experiment in a line: Inhibition of ROCK1 (unknown origin).
The nature of series [7]: Inhibition of GSK3 (unknown origin). Also noted: species or system Homo sapiens.
Series [8] concerns the target Epidermal growth factor receptor (Homo sapiens, UniProt P00533). The experiment in a line: Inhibition of EGFR (unknown origin).
Series [9] has as its target T1, Receptor tyrosine-protein kinase erbB-4. The experiment in a line: Inhibition of ERBB4 (unknown origin).
Series [10] deals with 5'-AMP-activated protein kinase catalytic subunit alpha-1 (Homo sapiens, UniProt Q13131). The experiment in a line: Inhibition of PRKKA1 (unknown origin).
Series [11] concerns the target Proto-oncogene tyrosine-protein kinase receptor Ret (Homo sapiens, UniProt P07949). Kind of series: Inhibition of RET (unknown origin).
For series [12], the target named is Leucine-rich repeat serine/threonine-protein kinase 2 (Homo sapiens, UniProt Q5S007). The experiment in a line: Inhibition of recombinant human GST-tagged LRRK2 expressed in baculovirus expression system.
In series [13] the target is T2, Mitogen-activated protein kinase kinase kinase 5. The experiment in a line: Inhibition of ASK1 (unknown origin) by cell based assay.
For series [14], the target named is Serine/threonine-protein kinase D2 (Homo sapiens, UniProt Q9BZL6). The experiment in a line: Inhibition of recombinant human full-length GST-tagged PRKD2 expressed in baculovirus expression system.
The nature of series [15]: Drug absorption in male Sprague-Dawley rat at 1 mg/kg, […] by LC-MS/MS analysis. The series is classed as ADME, organism-based. The conditions noted are these: in vivo, read-out: Drug absorption.
The nature of series [16]: Aqueous solubility of the compound in JP2 fluid at […]. The format is physicochemical.
For series [17], the target named is Ribosomal protein S6 kinase alpha-3 (Homo sapiens, UniProt P51812). The experiment in a line: Inhibition of recombinant human full-length His-tagged RSK2 expressed in baculovirus expression system.
In series [18] the target is Ribosomal protein S6 kinase alpha-6 (Homo sapiens, UniProt Q9UK32). The experiment in a line: Inhibition of recombinant human full-length GST-tagged RSK4 expressed in baculovirus expression system.
The species named for series [19] is Homo sapiens. Kind of series: Selectivity ratio of IC50 for inhibition of recombinant human GST-tagged LRRK2 expressed in baculovirus expression system to IC50 for inhibition of ASK1 (unknown origin).
Series [20] has as its target Casein kinase I isoform gamma-3 (Homo sapiens, UniProt Q9Y6M4). The experiment in a line: Inhibition of CK1gamma3 (unknown origin).
Series [21] in a line: Aqueous solubility of the compound in JP1 fluid at pH 1.2. The format is physicochemical.
In another series the test system is MDR1 (human). Kind of series: Permeability across apical to basolateral side in pig LLC-PK1 cells expressing human MDR1. The series is classed as ADME, cell-based, Sus scrofa. As to conditions: read-out: permeability.
The species entered for series [22] is Homo sapiens. Kind of series: Selectivity ratio of IC50 for inhibition of CK1gamma3 (unknown origin) to IC50 for inhibition of ASK1 (unknown origin).
Series [23] is filed under the species Homo sapiens. The experiment in a line: Selectivity ratio of IC50 for inhibition of recombinant human full-length GST-tagged RSK4 expressed in baculovirus expression system to IC50 for inhibition of ASK1 (unknown origin).
For series [24], the target named is Serine/threonine-protein kinase D1 (Homo sapiens, UniProt Q15139). The experiment in a line: Inhibition of recombinant human full-length GST-tagged PKCmu expressed in baculovirus expression system.
Series [25] concerns the target Casein kinase I isoform gamma-1 (Homo sapiens, UniProt Q9HCP0). The experiment in a line: Inhibition of CK1gamma1 (unknown origin).
The target of series [26] is T2, Mitogen-activated protein kinase kinase kinase 5. Kind of series: Binding affinity to ASK1 (unknown origin).
The species entered for series [27] is Homo sapiens. The experiment in a line: Selectivity ratio of IC50 for inhibition of recombinant human full-length His-tagged RSK2 expressed in baculovirus expression system to IC50 for inhibition of ASK1 (unknown origin).
Series [28] concerns the target Ribosomal protein S6 kinase alpha-2 (Homo sapiens, UniProt Q15349). Kind of series: Inhibition of recombinant human full-length GST-tagged RSK3 expressed in insect cells.
For series [29], the species on record is Homo sapiens. The experiment in a line: Selectivity ratio of IC50 for inhibition of recombinant human full-length GST-tagged PKCmu expressed in baculovirus expression system to IC50 for inhibition of ASK1 (unknown origin).
The species named for series [30] is Homo sapiens. Kind of series: Selectivity ratio of IC50 for inhibition of CK1gamma1 (unknown origin) to IC50 for inhibition of ASK1 (unknown origin).
The species entered for series [31] is Homo sapiens. The experiment in a line: Selectivity ratio of IC50 for inhibition of recombinant human full-length GST-tagged PRKD2 expressed in baculovirus expression system to IC50 for inhibition of ASK1 (unknown origin).
For series [32], the species on record is Homo sapiens. Kind of series: Selectivity ratio of IC50 for inhibition of recombinant human full-length GST-tagged RSK3 expressed in insect cells to IC50 for inhibition of ASK1 (unknown origin).
A short description of series [33]: Oral bioavailability in male Sprague-Dawley rat at 5 mg/kg. The format is ADME, organism-based. The conditions noted are these: in vivo.
Series [34] can be described thus: Metabolic stability in human hepatocytes assessed as hepatic extraction ratio. The conditions noted are these: read-out: ERH. The series is classed as ADME, cell-based, Hepatocyte.

≈ marks a conversion by molar mass, not a printed value.

T1 sequence (Q15303 whole entry): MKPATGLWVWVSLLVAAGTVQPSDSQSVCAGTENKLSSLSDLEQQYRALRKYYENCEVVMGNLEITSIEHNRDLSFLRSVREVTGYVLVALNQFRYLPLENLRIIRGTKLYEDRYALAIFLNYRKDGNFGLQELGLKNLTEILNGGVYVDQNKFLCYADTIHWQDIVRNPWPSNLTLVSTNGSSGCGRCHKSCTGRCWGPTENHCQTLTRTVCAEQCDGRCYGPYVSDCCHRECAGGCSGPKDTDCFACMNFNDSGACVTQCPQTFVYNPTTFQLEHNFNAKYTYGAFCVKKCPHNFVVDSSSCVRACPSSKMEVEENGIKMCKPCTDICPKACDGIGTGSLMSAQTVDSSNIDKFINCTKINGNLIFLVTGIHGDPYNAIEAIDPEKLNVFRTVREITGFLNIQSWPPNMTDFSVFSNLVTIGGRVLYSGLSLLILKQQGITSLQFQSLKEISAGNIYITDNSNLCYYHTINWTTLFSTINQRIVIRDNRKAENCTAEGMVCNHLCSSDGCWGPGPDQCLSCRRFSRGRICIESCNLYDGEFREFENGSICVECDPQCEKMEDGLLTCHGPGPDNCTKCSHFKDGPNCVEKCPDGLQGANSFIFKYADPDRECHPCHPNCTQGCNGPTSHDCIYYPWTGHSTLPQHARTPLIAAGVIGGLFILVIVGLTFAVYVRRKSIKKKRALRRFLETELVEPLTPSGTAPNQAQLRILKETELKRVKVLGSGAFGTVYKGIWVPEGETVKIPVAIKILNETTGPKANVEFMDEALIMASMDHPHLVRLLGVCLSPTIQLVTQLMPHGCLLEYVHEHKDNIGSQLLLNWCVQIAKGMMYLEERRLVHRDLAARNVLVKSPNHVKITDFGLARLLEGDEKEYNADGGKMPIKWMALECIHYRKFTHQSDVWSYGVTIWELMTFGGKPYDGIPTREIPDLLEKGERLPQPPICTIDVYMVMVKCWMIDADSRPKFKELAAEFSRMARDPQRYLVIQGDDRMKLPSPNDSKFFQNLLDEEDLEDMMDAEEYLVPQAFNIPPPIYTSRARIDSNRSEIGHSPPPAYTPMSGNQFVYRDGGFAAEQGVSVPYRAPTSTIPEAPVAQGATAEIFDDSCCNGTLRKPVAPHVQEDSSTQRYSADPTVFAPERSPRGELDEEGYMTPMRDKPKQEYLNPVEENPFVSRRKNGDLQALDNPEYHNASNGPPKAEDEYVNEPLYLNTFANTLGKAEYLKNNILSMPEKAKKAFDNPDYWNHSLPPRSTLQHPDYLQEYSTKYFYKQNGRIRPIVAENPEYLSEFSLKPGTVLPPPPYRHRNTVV
Sequence of Epidermal growth factor receptor (P00533 whole entry): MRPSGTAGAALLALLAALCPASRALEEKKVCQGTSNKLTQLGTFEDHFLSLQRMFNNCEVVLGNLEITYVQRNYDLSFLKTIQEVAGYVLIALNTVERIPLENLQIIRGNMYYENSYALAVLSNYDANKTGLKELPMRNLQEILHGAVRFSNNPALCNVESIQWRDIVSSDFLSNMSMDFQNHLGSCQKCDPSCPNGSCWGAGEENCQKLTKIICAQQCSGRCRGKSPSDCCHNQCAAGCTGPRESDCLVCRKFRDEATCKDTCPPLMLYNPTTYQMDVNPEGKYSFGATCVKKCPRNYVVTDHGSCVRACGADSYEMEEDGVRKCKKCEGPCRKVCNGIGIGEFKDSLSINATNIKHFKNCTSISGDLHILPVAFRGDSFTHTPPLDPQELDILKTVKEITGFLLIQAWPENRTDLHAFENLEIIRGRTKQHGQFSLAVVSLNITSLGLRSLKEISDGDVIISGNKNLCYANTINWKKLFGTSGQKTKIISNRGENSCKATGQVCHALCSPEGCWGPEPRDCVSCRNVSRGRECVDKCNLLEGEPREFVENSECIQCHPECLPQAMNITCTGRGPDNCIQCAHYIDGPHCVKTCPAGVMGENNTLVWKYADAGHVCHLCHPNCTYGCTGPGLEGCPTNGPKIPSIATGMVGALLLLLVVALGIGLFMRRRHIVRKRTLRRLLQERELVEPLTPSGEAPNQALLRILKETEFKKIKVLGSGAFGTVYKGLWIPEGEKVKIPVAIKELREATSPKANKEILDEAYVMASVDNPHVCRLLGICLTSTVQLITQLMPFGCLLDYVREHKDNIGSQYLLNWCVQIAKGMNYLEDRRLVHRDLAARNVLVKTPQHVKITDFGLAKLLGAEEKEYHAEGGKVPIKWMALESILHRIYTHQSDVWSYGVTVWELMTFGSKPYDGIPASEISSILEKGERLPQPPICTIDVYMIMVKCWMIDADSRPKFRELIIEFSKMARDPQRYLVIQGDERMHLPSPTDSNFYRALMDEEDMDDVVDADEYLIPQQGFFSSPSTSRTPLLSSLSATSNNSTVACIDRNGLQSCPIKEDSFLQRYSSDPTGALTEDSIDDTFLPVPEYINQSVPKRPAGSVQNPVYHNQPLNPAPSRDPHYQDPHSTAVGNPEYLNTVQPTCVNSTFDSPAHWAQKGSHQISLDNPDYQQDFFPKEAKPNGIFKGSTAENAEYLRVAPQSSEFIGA
Sequence of 5'-AMP-activated protein kinase catalytic subunit alpha-1 (Q13131 whole entry): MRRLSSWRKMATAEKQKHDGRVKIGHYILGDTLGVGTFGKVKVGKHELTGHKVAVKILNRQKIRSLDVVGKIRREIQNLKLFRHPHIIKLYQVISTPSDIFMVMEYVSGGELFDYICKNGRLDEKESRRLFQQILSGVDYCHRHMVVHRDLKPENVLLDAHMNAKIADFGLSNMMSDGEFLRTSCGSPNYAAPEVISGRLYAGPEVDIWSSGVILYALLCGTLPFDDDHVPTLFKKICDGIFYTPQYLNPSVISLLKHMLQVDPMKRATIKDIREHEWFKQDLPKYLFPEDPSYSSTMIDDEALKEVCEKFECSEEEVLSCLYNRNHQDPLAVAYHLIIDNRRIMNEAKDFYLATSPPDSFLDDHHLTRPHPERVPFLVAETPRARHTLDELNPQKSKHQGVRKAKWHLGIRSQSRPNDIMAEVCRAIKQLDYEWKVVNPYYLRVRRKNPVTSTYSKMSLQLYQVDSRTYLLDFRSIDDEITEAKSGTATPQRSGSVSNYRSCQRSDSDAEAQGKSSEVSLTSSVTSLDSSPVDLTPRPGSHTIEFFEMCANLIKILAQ
Sequence of Rho-associated protein kinase 1 (Q13464 whole entry): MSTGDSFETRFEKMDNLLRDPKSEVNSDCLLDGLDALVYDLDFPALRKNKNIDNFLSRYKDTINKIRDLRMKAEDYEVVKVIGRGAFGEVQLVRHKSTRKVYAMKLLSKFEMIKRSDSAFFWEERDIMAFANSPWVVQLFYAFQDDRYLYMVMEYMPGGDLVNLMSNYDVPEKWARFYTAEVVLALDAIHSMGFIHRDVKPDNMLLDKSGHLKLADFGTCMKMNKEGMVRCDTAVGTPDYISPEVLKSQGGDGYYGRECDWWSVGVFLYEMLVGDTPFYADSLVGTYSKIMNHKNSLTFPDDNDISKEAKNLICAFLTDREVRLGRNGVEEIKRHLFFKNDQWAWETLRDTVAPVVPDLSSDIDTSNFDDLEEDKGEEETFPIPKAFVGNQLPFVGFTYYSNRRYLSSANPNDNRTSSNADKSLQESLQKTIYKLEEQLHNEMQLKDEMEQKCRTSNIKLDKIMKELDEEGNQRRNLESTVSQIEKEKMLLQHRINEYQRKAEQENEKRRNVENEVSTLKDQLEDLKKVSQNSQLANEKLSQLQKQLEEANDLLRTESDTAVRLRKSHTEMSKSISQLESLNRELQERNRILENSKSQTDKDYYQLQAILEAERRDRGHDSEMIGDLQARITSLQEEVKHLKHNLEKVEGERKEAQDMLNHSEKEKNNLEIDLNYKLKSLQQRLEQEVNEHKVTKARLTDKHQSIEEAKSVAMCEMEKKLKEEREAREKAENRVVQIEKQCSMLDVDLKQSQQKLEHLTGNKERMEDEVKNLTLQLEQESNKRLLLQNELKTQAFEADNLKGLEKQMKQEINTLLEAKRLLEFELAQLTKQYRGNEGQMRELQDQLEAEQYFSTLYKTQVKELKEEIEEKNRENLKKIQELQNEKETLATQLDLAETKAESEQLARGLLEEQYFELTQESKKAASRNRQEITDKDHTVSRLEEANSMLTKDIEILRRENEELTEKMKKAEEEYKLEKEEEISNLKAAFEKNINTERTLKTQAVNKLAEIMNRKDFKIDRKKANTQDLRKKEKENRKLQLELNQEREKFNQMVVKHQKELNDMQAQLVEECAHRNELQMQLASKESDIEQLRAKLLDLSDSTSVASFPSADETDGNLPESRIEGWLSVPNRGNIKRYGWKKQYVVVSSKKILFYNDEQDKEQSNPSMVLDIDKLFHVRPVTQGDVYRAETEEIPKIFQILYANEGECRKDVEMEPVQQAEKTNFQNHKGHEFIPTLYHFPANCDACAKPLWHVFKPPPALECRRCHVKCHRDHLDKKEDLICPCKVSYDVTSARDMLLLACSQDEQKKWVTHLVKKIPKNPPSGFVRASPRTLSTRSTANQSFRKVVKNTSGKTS
Sequence of Tyrosine-protein kinase ITK/TSK (Q08881 whole entry): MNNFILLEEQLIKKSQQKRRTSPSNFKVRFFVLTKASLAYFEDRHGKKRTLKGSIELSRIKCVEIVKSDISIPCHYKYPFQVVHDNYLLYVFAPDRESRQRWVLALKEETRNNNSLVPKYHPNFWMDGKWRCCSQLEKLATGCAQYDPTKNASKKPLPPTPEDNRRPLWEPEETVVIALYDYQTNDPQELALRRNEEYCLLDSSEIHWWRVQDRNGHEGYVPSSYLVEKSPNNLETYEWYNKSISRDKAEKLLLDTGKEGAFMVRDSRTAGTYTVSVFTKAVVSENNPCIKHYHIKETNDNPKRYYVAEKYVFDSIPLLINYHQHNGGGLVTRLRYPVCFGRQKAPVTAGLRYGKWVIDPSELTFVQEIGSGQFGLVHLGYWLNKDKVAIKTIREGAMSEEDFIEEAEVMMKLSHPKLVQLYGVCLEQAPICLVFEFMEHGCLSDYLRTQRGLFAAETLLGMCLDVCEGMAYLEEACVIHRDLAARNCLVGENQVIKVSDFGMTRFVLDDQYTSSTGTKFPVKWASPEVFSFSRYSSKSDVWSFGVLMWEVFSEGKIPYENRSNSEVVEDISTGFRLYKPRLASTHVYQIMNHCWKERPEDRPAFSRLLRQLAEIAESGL

In general, IC50 refers to the concentration at which inhibition is half-maximal. The term pIC50 denotes the negative decadic logarithm of the IC50, by convention in mol/L. A lower pIC50 goes with a high IC50. For `CC(C)n1cnnc1-c1cccc(N2Cc3ccccc3C2=O)n1`, the IC50 in series [1] is 631 nM; in series [2], greater than 20000 nM; in series [3], 1260 nM; in series [4], 14 nM; on Ephrin type-A receptor 3 it was greater than 20000 nM; in series [5], 63.1 nM. Moreover, the IC50 was 1000 nM in series [6]; greater than 20000 nM in series [8]; greater than 20000 nM in series [9]; 200 nM in series [10]; 63.1 nM in [11]. In addition, the pIC50 against MAP kinase p38 was less than 4.7; in [7] it was 7.4.

Usually EC50 stands for the concentration needed to bring the measured effect to its halfway point. Low values mean higher potency in that assay, high ones lower potency in that assay. Broadly, the solubility is the concentration that dissolves in the medium under given conditions. The Kd is the free concentration of one partner at which half of the binding sites on the other are occupied at equilibrium, for simple one-to-one binding. Read a low Kd as tighter binding. As usually defined, the bioavailability is dose-corrected exposure relative to a reference, in per cent. `CC(C)n1cnnc1-c1cccc(NC(=O)[C@H]2CN(c3ccc(C4CC4)nc3)CCO2)n1`: the IC50 in series [12] is no more than 500 nM; in [14] it was no more than 500 nM; in series [17], no more than 500 nM; in series [18], no more than 500 nM; in [4], 17 nM; in [20] it was no more than 500 nM. Moreover, the half-inhibitory concentration (IC50) in series [24], in [25] and in series [28] was no more than 500 nM in each case. For the same compound, in series [13], the response was half-maximal at 24 nM (EC50). Besides, the Fa in series [15] was determined as 52%. The solubility in series [16] is 101 µM (≈ 43.8 µg/mL); in series [21], greater than 200 µM. In addition, the Ratio IC50 in the series filed under Homo sapiens [19], in the series filed under Homo sapiens [22], in the series listed under Homo sapiens [23], in the series listed under Homo sapiens [27], in the series filed under Homo sapiens [29] and in the series listed under Homo sapiens [30] was less than 20 each time. The Ratio IC50 in the series listed under Homo sapiens [31] and in the series filed under Homo sapiens [32] was less than 20 each time. The Papp A→B in the series with MDR1 (human) stood at 10.7 ×10⁻⁶ cm/s. Also, the Kd in series [26] is less than 1 nM. Also, in series [33], the bioavailability stood at 18%. Further, the hepatic extraction ratio in series [34] stood at 0.32.

`CC(C)n1cnnc1-c1cccc(NC(=O)C2CN(c3ccccc3)CCO2)n1` (centres undefined) had an IC50 in series [4] of 130 nM.

For `CC(C)n1cnnc1-c1cccc(NC(=O)C2CN(c3cccnc3)CCO2)n1` (centres undefined), in series [4], 31 nM corresponded to half-maximal inhibition (IC50).

Consider `CC(C)n1cnnc1-c1cccc(NC(=O)C2CCCCO2)n1` (centres undefined), for which the IC50 in series [1] is greater than 20000 nM; in series [2], greater than 20000 nM; in series [3], greater than 20000 nM; in [4], 270 nM; against Ephrin type-A receptor 3, greater than 20000 nM; in series [5] it was 3160 nM. Further, the half-maximal inhibitory concentration (IC50) in series [6], in [8], in series [9], in [10] and in [11] was greater than 20000 nM in each case. Besides, the pIC50 is less than 4.7 against MAP kinase p38 and 6.2 in series [7].

Take `CC(C)n1cnnc1-c1cccc(NC(=O)C2CN(C)CCO2)n1` (centres undefined): in [4], the IC50 came to 2 nM.
